The values below come from patent US8063220B2, “Sulfonyl-quinoline derivatives” (Richter Gedeon Nyrt., priority 2007, dated 2011).

One assay deals with mGluR5 receptors (Homo sapiens, UniProt P41594). Briefly: Activity on mGluR5 receptors (test not specified).
The target of another assay is mGluR1 receptors (Homo sapiens, UniProt Q13255). Briefly: Activity on mGluR1 receptors (test not specified).
In another assay the target is T1, rat mGluR5 (Rattus norvegicus, UniProt P31424).
T1 construct: Rat cerebro-cortical membrane preparation was used; from tissue; host or cells: rat cerebral cortex (membrane preparation)
Briefly: MGluR5 receptor binding test ([3H]-M-MPEP displacement, rat cerebro-cortical membrane preparation). Conditions: rat mGluR5, [3H]-M-MPEP 2 nM; read-out: mGlu5 Ki. The protocol: Rat cerebro-cortical membrane preparation was used to determine the binding characteristics of reference compounds and novel compounds to the rat mGluR5. The A18 cell line expressing hmGluR5a (purchased from Euroscreen) was used to determine binding characteristics of the chemical compounds to the human mGluR5a receptor. [3H]-M-MPEP (2 nM) was used as radioligand. The nonspecific binding was determined in the presence of 10 μM M-MPEP.

A further assay concerns the target T2, rat mGluR1 (Rattus norvegicus, UniProt P23385).
T2 construct: rat cerebellar membrane preparation was used; from tissue; host or cells: rat cerebellum (membrane preparation)
Briefly: MGluR1 receptor binding test ([3H]R214127 displacement, rat cerebellar membrane preparation). Particulars: rat mGluR1, [3H]R214127 3 nM; read-out: mGlu1 Ki. In outline: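 Rat cerebellar membranes with 3 nM [3H]R214127; nonspecific binding defined by 1 μM R214127. IC50 from displacement curves by nonlinear regression, converted to Ki by Cheng–Prusoff.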

T2 sequence (P23385 19-1199): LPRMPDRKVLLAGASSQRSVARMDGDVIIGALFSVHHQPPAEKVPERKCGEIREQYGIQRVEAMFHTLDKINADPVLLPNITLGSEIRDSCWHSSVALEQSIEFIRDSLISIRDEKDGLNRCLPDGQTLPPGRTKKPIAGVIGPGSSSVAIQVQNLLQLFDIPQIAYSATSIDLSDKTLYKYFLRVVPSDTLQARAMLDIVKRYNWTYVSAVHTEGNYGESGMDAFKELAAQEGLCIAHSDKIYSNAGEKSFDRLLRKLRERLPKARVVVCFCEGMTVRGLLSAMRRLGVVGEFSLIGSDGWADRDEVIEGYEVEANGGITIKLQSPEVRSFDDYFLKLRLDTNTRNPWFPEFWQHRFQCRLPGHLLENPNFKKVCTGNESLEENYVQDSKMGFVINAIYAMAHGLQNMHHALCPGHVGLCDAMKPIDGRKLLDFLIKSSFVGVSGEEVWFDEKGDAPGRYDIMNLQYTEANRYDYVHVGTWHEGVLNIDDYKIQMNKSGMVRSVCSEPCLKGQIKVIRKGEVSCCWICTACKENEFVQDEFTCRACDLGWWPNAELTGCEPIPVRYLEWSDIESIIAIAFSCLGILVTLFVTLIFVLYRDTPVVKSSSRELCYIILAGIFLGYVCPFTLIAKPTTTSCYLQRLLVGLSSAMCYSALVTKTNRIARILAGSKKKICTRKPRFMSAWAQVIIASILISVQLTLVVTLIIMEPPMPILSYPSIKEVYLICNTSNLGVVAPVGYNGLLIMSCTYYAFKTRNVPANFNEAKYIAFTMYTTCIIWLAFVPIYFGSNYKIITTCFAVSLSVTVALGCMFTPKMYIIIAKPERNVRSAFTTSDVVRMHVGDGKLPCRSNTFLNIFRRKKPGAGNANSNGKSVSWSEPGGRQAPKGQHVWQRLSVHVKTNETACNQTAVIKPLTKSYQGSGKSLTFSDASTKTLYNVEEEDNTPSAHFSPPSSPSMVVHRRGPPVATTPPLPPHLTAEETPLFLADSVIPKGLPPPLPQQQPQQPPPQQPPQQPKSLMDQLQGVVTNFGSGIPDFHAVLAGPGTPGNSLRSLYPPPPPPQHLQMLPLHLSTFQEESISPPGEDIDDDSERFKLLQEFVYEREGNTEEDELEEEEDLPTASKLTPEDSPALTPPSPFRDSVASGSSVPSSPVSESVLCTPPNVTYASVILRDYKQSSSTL
T1 sequence (P31424 21-1203): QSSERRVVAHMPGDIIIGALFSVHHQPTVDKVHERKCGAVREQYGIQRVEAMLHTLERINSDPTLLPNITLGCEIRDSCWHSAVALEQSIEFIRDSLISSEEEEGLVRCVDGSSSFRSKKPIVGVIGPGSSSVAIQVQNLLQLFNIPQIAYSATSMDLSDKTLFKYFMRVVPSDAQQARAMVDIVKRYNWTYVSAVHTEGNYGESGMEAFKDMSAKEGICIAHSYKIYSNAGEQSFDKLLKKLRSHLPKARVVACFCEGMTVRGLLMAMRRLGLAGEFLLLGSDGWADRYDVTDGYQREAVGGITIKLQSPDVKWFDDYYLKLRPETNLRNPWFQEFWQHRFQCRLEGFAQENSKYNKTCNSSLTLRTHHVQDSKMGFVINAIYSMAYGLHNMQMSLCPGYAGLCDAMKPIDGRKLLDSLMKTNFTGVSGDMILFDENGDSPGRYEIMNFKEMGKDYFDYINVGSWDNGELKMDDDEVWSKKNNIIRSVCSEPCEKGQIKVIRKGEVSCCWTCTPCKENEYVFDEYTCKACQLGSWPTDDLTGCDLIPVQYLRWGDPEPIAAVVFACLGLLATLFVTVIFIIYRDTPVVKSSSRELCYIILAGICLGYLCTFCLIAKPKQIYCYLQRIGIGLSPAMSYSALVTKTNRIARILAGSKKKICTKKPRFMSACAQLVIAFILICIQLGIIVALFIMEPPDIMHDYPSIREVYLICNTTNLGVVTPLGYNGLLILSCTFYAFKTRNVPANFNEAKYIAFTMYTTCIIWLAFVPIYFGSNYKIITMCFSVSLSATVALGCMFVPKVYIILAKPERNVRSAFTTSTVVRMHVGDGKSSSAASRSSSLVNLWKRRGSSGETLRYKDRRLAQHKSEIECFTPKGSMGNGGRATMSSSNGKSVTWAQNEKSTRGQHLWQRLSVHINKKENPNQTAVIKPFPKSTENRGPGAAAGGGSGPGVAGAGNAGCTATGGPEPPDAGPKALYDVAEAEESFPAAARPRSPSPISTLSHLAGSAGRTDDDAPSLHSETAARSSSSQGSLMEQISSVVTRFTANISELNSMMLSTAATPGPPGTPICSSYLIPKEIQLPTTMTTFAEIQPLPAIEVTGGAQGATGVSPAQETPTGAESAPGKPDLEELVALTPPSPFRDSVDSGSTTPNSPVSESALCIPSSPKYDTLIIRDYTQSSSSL
Chain of mGluR1 receptors (Q13255 19-1194): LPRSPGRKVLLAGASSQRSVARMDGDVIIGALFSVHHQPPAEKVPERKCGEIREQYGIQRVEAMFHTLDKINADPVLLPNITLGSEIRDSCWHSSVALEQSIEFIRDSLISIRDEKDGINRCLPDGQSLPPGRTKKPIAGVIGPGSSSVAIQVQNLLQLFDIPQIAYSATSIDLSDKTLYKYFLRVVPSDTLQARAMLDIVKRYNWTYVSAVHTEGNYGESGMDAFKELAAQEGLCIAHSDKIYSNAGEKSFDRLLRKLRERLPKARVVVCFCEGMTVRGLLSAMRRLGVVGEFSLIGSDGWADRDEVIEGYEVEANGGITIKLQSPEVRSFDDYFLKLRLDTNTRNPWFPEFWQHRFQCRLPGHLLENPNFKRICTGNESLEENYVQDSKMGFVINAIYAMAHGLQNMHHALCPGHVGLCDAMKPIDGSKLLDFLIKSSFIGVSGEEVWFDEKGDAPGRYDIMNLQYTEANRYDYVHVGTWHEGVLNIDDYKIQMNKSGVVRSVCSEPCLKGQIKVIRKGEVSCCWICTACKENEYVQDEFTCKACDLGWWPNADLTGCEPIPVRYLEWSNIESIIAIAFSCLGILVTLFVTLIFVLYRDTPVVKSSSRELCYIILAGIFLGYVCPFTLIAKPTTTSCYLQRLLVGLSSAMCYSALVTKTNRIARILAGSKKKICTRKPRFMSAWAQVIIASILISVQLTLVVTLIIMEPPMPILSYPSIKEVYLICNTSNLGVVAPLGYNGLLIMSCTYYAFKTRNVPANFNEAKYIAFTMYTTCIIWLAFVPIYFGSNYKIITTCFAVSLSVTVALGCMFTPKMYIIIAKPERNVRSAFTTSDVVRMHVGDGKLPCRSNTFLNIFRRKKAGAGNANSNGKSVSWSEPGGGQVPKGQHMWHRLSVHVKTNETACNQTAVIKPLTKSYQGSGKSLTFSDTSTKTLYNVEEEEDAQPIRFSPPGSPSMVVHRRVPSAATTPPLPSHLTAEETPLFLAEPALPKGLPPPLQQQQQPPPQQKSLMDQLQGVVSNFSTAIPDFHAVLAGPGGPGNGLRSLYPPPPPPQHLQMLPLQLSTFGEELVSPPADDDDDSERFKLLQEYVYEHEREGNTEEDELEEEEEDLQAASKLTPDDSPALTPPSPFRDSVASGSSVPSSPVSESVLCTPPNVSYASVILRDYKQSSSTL
Chain of mGluR5 receptors (P41594 21-1212): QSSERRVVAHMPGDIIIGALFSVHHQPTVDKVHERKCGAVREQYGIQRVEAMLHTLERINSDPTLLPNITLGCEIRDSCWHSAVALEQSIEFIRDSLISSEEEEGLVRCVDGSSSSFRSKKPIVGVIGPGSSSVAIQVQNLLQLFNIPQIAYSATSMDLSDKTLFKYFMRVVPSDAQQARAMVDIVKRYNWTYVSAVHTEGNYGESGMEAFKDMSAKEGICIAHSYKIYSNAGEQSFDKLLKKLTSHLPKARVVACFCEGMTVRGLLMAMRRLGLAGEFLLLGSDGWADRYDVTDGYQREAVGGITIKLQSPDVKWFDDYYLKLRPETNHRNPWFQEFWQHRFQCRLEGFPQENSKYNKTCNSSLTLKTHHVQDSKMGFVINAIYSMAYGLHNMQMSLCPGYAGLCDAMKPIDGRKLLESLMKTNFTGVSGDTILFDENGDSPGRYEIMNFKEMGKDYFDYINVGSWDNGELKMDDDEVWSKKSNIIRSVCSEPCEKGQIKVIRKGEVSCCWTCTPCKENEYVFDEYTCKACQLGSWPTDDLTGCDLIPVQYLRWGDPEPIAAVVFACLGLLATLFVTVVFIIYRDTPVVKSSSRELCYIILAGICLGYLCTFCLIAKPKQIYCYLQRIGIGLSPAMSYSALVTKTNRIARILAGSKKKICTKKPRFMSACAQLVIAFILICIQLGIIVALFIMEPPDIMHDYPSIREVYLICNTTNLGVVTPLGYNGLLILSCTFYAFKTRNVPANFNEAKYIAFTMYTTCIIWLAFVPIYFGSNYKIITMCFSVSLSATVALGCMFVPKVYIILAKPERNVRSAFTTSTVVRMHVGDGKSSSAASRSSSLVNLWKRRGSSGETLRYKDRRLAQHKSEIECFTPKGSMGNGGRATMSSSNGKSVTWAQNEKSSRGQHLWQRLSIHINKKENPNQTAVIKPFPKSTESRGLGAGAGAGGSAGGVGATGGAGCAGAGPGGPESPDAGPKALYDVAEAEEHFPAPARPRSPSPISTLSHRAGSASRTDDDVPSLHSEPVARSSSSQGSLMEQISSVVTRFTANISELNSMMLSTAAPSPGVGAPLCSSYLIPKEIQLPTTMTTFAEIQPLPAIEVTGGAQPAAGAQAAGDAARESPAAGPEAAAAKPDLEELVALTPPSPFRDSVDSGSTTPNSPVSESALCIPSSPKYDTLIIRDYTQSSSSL

`O=S(=O)(c1ccccc1)c1cnc2c(C(F)(F)F)cccc2c1-c1ccccc1` [3-benzenesulfonyl-4-phenyl-8-trifluoromethyl-quinoline]: the “activity on mGluR5 receptors” value at mGluR5 receptors was “inactive”. In addition, the “activity on mGluR1 receptors” value on mGluR1 receptors is “inactive”.

In the case of `N#Cc1cc(C#N)cc(S(=O)(=O)c2cnc3cc(F)ccc3c2-c2ccc(F)cc2)c1` [Compound 249], the Ki (as a rule, a measure of affinity in units of concentration, obtained from inhibition or displacement) was < 200 nM at rat mGluR5 and > 500 nM at rat mGluR1.

Regarding `N#Cc1cc(F)cc(S(=O)(=O)c2cnc3cc(Cl)ccc3c2-c2cccc(Cl)c2)c1` [Compound 250], the values for the Ki on rat mGluR5 and on rat mGluR1 were < 200 nM and 200 to 500 nM, respectively.

For the compound `O=S(=O)(c1ccc(F)c(F)c1)c1cnc2cc(F)ccc2c1-c1ccc(F)c(F)c1` [Compound 251], the values for the Ki on rat mGluR5 and at rat mGluR1 were < 200 nM and > 500 nM, respectively.

`O=S(=O)(c1cc(Cl)cc(Cl)c1)c1cnc2c(F)c(Cl)ccc2c1-c1cccc(Cl)c1` [Compound 252]: the figures for the Ki at rat mGluR5 and at rat mGluR1 were < 200 nM and 200 to 500 nM, respectively.

With `N#Cc1cccc(S(=O)(=O)c2cnc3c(F)c(Cl)ccc3c2-c2cccc(Cl)c2)c1` [Compound 253], the Ki on rat mGluR5 was < 200 nM; at rat mGluR1 it was 200 to 500 nM.

In the case of `N#Cc1cccc(S(=O)(=O)c2cnc3cc(Cl)ccc3c2-c2cccc(Cl)c2)c1` [Compound 254], the values for the Ki on rat mGluR5 and at rat mGluR1 were < 200 nM and 200 to 500 nM, respectively.

Regarding `O=S(=O)(c1cc(Cl)cc(Cl)c1)c1cnc2cc(Cl)ccc2c1-c1ccccc1F` [Compound 255], the Ki is < 200 nM at rat mGluR5 and 200 to 500 nM on rat mGluR1.

Turning to `N#Cc1cc(C#N)cc(S(=O)(=O)c2cnc3cc(F)ccc3c2-c2ccc(F)c(F)c2)c1` [Compound 256], the inhibitory constant (Ki) on rat mGluR5 is < 200 nM; on rat mGluR1, > 500 nM.

Turning to `O=S(=O)(c1cc(Cl)cc(Cl)c1)c1cnc2cc(F)ccc2c1-c1ccccc1F` [Compound 257], the figures for the Ki at rat mGluR5 and at rat mGluR1 were < 200 nM and > 500 nM, respectively.

Consider `O=S(=O)(c1ccc(F)c(Cl)c1)c1cnc2cc(F)ccc2c1-c1cccc(Cl)c1` [Compound 258], for which the Ki on rat mGluR5 was < 200 nM; at rat mGluR1 it was 200 to 500 nM.

As for `O=S(=O)(c1ccc(F)c(F)c1)c1cnc2c(F)cccc2c1-c1cccc(Cl)c1` [Compound 259], the results for the Ki on rat mGluR5 and on rat mGluR1 were < 200 nM and > 500 nM, respectively.

As to `O=S(=O)(c1ccc(F)c(F)c1)c1cnc2ccccc2c1-c1ccc(Cl)c(Cl)c1` [Compound 260], the Ki was < 200 nM at rat mGluR5 and > 500 nM on rat mGluR1.

Take `O=S(=O)(c1ccc(F)c(F)c1)c1cnc2cc(F)ccc2c1-c1ccccc1F` [Compound 261]: the Ki is < 200 nM at rat mGluR5 and > 500 nM at rat mGluR1.

For `O=S(=O)(c1ccc(F)c(Cl)c1)c1cnc2cc(Cl)ccc2c1-c1cc(F)cc(F)c1` [Compound 262], the Ki at rat mGluR5 and on rat mGluR1 was < 200 nM throughout.

In the case of `O=S(=O)(c1cc(Cl)cc(Cl)c1)c1cnc2cc(Cl)ccc2c1-c1cccc(Cl)c1` [Compound 263], the Ki is < 200 nM at rat mGluR5 and 200 to 500 nM at rat mGluR1.

With `Nc1ccc2c(-c3cccc(F)c3)c(S(=O)(=O)c3ccc(F)c(F)c3)cnc2c1` [Compound 264, 7-Amino-3-(3,4-difluoro-benzenesulfonyl)-4-(3-fluoro-phenyl)-quinoline], the Ki on rat mGluR5 was < 200 nM; on rat mGluR1 it was 200 to 500 nM.

Consider `N#Cc1cccc(S(=O)(=O)c2cnc3ccccc3c2-c2cccc(Cl)c2)c1` [Compound 265], for which the Ki on rat mGluR5 is < 200 nM; on rat mGluR1, > 500 nM.

With `N#Cc1cc(F)cc(S(=O)(=O)c2cnc3ccccc3c2-c2ccc(F)c(F)c2)c1` [Compound 266], the results for the Ki at rat mGluR5 and on rat mGluR1 were < 200 nM and > 500 nM, respectively.

As to `N#Cc1cc(F)cc(S(=O)(=O)c2cnc3cc(F)ccc3c2-c2ccc(Cl)cc2)c1` [Compound 268], the Ki on rat mGluR5 is < 200 nM; on rat mGluR1, > 500 nM.

As for `N#Cc1cc(F)cc(S(=O)(=O)c2cnc3cc(Cl)ccc3c2-c2ccc(Cl)cc2)c1` [Compound 269], the Ki on rat mGluR5 is < 200 nM; at rat mGluR1, > 500 nM.

As for `N#Cc1cc(F)cc(S(=O)(=O)c2cnc3ccccc3c2-c2ccc(F)cc2)c1` [Compound 271], the results for the Ki on rat mGluR5 and at rat mGluR1 were < 200 nM and > 500 nM, respectively.

Turning to `N#Cc1cc(F)cc(S(=O)(=O)c2cnc3ccccc3c2-c2ccc(Cl)cc2)c1` [Compound 272], the values for the Ki on rat mGluR5 and on rat mGluR1 were < 200 nM and > 500 nM, respectively.

Consider `N#Cc1cc(S(=O)(=O)c2cnc3ccccc3c2-c2ccc(Cl)cc2)ccc1F` [Compound 273], for which the Ki was < 200 nM at rat mGluR5 and > 500 nM on rat mGluR1.

In the case of `N#Cc1cc(S(=O)(=O)c2cnc3cc(F)ccc3c2-c2ccc(Cl)cc2)ccc1F` [Compound 274], the Ki at rat mGluR5 is < 200 nM; at rat mGluR1, > 500 nM.

Regarding `N#Cc1cc(S(=O)(=O)c2cnc3cc(F)ccc3c2-c2ccc(F)cc2)ccc1F` [Compound 275], the Ki was < 200 nM on rat mGluR5 and > 500 nM on rat mGluR1.

Regarding `N#Cc1cc(S(=O)(=O)c2cnc3cc(Cl)ccc3c2-c2ccc(F)cc2)ccc1F` [Compound 276], the Ki is < 200 nM at rat mGluR5 and 200 to 500 nM on rat mGluR1.

As to `N#Cc1cc(S(=O)(=O)c2cnc3cc(Cl)ccc3c2-c2ccc(Cl)cc2)ccc1F` [Compound 277], the Ki was < 200 nM on rat mGluR5 and 200 to 500 nM at rat mGluR1.

As to `N#Cc1cc(F)cc(S(=O)(=O)c2cnc3c(N)cccc3c2-c2ccc(F)cc2)c1` [Compound 278], the Ki was < 200 nM on rat mGluR5 and > 500 nM on rat mGluR1.

Take `N#Cc1cc(F)cc(S(=O)(=O)c2cnc3c(N)cccc3c2-c2cccc(F)c2)c1` [Compound 279]: the inhibition constant (Ki) on rat mGluR5 is < 200 nM; on rat mGluR1 it was > 500 nM.
